Numbers after ± are expanded uncertainties.
Details: Liquid, Closed cell (Static) method

Row | vapor or sublimation pressure (373.2 K) | vapor or sublimation pressure (413.2 K) | vapor or sublimation pressure (453.2 K) | vapor or sublimation pressure (373 K) | vapor or sublimation pressure (412.8 K) | vapor or sublimation pressure (452.3 K) | vapor or sublimation pressure (412.5 K) | vapor or sublimation pressure (452.2 K) | Structure (SMILES)
1 | 3.5 ± 0.2 kPa | 18.2 ± 0.8 kPa | 66.1 ± 2.7 kPa |  |  |  |  |  | CC(=O)Oc1ccccc1 [phenyl ethanoate]
2 |  |  |  | 205.7 ± 9 kPa | 557.1 ± 23 kPa | 1222.7 ± 49 kPa |  |  | CCOC(C)=O [ethyl acetate]
3 |  |  |  | 45.1 ± 2.1 kPa |  |  | 143 ± 5.9 kPa | 361 ± 15 kPa | CCOC(=O)OCC [diethyl carbonate]

— the NIST ThermoML archive (doi:10.1016/j.jct.2015.07.024)
